We go through one compound from patent publication US6469028B1, “Synthesis and use of retinoid compounds having negative hormone and/or anatgonist activities” (Allergan, Inc., priority 1995, dated 2002).

One series deals with T1, RARα (Homo sapiens, UniProt P10276).
T1 sequence (P10276 1-462): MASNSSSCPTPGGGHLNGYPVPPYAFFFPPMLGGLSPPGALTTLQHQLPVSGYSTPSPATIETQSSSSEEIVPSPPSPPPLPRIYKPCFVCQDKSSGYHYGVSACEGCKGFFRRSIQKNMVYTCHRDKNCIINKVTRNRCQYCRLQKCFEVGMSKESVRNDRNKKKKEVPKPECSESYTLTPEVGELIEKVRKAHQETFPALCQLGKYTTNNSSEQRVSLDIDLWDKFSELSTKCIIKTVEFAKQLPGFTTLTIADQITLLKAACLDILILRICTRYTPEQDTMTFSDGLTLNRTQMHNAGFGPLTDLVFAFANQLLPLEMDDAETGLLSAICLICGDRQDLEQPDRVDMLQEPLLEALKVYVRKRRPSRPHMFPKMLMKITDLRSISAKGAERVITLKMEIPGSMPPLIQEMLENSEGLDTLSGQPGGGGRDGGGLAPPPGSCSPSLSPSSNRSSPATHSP
Briefly: Example 7: inhibition of RAR transactivation by ATRA, CV-1 cells. The series is classed as cell-based. Details: host or cells: TNT-coupled reticulocyte lysate in vitro transcription-translation. The conditions noted are these: equal doses of AGN 193109 and ATRA (10 nM ATRA). The method, then: Eukaryotic expression vectors pRShRAR-α (Giguere et al. Nature 330:624 (1987)), pRShRAR-β (Benbrook et al. Nature 333:669 (1988)) and pRShRAR-γ (Ishikawa et al. Mol. Endocrinol. 4:837 (1990)) were cotransfected with the Δ-MTV-Luc reporter plasmid described by Hollenberg et al. (Cell 55:899.(1988)). […] Calcium phosphate transfections were carried out exactly as described in Example 6. […] Cell lysates and luciferase activity measurements were also performed as in Example 6.

The target of another series is T2, RARβ (Homo sapiens, UniProt P10826).
T2 sequence (P10826 1-448 isoform P10826-2): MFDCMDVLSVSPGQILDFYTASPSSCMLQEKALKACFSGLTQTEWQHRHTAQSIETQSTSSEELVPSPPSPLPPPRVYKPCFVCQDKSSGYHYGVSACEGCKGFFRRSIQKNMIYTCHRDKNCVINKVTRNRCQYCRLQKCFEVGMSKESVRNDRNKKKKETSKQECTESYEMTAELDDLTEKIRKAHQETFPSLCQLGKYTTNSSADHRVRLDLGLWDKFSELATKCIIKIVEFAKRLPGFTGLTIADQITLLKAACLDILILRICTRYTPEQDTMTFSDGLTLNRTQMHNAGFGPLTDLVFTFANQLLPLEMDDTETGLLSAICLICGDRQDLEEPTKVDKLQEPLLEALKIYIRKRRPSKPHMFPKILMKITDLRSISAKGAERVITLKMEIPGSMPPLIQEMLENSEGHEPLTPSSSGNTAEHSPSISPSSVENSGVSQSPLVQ
Kind of series: [3H]-ATRA displacement assay, baculovirus expressed receptor. The series is classed as binding. Also on record: made in house; host or cells: baculovirus expression system. To be noted: Table 11.

The target of another series is T3, RARγ (Homo sapiens, UniProt P13631).
T3 sequence (P13631 1-454): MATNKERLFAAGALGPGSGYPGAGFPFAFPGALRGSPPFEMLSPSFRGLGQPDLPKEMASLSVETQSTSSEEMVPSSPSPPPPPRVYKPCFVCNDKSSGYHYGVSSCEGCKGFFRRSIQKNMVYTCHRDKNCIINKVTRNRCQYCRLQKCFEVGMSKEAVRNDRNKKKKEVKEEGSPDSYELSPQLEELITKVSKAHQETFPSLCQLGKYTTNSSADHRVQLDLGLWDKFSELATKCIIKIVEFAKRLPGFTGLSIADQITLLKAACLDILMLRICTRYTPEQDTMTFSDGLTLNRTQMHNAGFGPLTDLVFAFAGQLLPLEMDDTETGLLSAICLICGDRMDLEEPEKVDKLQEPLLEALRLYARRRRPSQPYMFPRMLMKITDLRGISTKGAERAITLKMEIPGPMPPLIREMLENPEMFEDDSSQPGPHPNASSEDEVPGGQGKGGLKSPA
Briefly: Example 7: inhibition of RAR transactivation by ATRA, CV-1 cells. The conditions noted are these: equal doses of AGN 193109 and ATRA (10 nM ATRA). In kind it is cell-based.

A further series concerns ER-RAR-α. Kind of series: Example 10: repression of basal gene activity, ERE-tk-Luc, CV-1 cells. The conditions noted are these: 10^−9 to 10^−6 M, 18 hours, single agent. In kind it is cell-based. The text has this: More specifically, these procedures employed the ER-RAR chimeric receptor and ERE-tk-Luc reporter system. The ERE-tk-Luc plasmid includes the region −397 to −87 of the estrogen responsive 5′-flanking region of the Xenopus vitellogenin A2 gene, described by Klein-Hitpass, et al. in Cell 46:1053-1061 (1986), ligated upstream of the HSV thymidine kinase promoter and luciferase reporter gene of plasmid tk-Luc. The ER-RAR chimeric receptors consisted of the estrogen receptor DNA binding domain fused to the “D-E-F” domain of the RARs. Those having ordinary skill in the art appreciate this “D-E-F” domain functions to bind retinoid, to provide a retinoid inducible transactivation function and to provide a contact site for heterodimerization with RXR. Thus, luciferase expression in this reporter system was dependent on activation of the transfected chimeric receptor construct.
CV-1 cells were co-transfected with the ERE-tk-Luc reporter plasmid and either ER-RAR-α, ER-RAR-β or ER-RAR-γ expression plasmids. The ERE-tk-Luc plasmid contained the estrogen-responsive promoter element of the Xenopus laevis vitellogenin A2 gene and was substantially identical to the reporter plasmid described by Klein-Hitpass et al. in Cell 46:1053 (1986), except that the CAT reporter gene was substituted by a polynucleotide sequence encoding luciferase. The ER-RAR-α, ER-RARβ and ER-RAR-γ chimeric receptor-encoding polynucleotides employed in the co-transfection have been described by Graupner et al. in Biochem. Biophys. Res. Comm. 179:1554 (1991). […] Calcium phosphate transfections were carried out exactly as described in Example 6 using 0.5 μg/well of reporter plasmid and either 0.05 μg, 0.10 μg or 0.2 μg/well of receptor plasmid. […] Cell lysates and luciferase activity measurements were performed as described in Example 6.

Series [1] in a line: Example 4: retinoid-induced hypertriglyceridemia (serum triglycerides). In kind it is in vivo, rats. The method, then:
Male Fischer rats (6-7 weeks old, n=5) were treated by intragastric intubation with corn oil (vehicle), AGN 191659, AGN 193109 or a combination of AGN 191659 and AGN 193109. AGN 191659 and AGN 193109 were given as fine suspensions in corn oil.
Serum was separated from blood by low speed centrifugation. Total serum triglycerides (triglycerides plus glycerol) were measured with a standard spectrophotometric endpoint assay available commercially as a kit and adapted to a 96-well plate format. Serum triglyceride levels are expressed as the mean±SD. Means were compared statistically by one-way analysis of variance followed by Dunnett's test if significant differences were found. Differences were considered significant at P<0.05.

A word on the Kd: it is the concentration at which binding is half-saturated. A higher Kd goes with lower affinity. Consider `Cc1ccc(C2=CCC(C)(C)c3ccc(C#Cc4ccc(C(=O)O)cc4)cc32)cc1` [Compound 60, 4-[(5,6-dihydro-5,5-dimethyl-8-(4-methylphenyl)-2-naphthalenyl)ethynyl]benzoic acid], for which the “inhibition of luciferase activity relative to ATRA alone” value at RARα and at RARγ was “greater than 50%” throughout. The compound also came in with a Kd on RARβ of 2 nM. In the series on ER-RAR-α, the luciferase reporter activity result is given as “substantially unaffected”. In series [1] (AGN 193109 with AGN 191659 at molar ratios of 1:1 and 5:1), the “serum triglycerides versus control” value was “reduced serum triglycerides to levels that were not significantly different from control”. In addition, the “Serum Triglycerides” value in series [1] (group B: AGN 193109 19.6 mg/kg oral alone, male Fischer rats) came to 52.4 ± 6.3 mg/dL; in series [1] (group D: AGN 193109 3.9 mg/kg + AGN 191659 3.7 mg/kg oral), 55.7 ± 14.7 mg/dL; in series [1] (group E: AGN 193109 19.6 mg/kg + AGN 191659 3.7 mg/kg oral) it was 72.7 ± 8.9 mg/dL.
